Assay results taken from US12707888B2, “Asymmetric donor-acceptor molecular dyes” (THE UNIVERSITY OF NORTH CAROLINA AT CHARLOTTE, priority 2019, dated 2026).

How the values were obtained:
[1] = in cyclohexane; cited from earlier work
[2] = Lippert-Mataga analysis of excited state dipole moments; assay type: physicochemical; conditions: semi-empirically calculated using the Lippert-Mataga equation
Protocol: The calculated HOMOs/LUMOs indicate that the strong solvatofluorochromism arises from an ICT mechanism, whereby the ground state has significant electron localization on the donor side of the molecule whereas the electron density shifts to the acceptor moiety in the excited state. To more directly quantify the strong ICT character of the TTz dyes, the excited-state dipole moments were calculated using the Lippert-Mataga equation (Eq 1):
[formula] where va and vf are the wavenumbers of the absorption and emission peaks in cm^−1, respectively; μ* and μ are the excited state and ground state dipoles, respectively; ϵ0 is the vacuum permittivity, h is Planck's constant, c is the speed of light, a is the Onsager cavity radius, Δf is the orientation polarizability, ϵ is the relative permittivity, and η is the refractive index. The dipoles were calculated using Spartan 2016 software, and the Onsager cavity radii were calculated using Gaussian '09 software.
FIGS. 9A and 9B show the Stokes shift of Bu2N-TTz-Py and Ph2N-TTz-COOH versus Δf, respectively. From the slopes of the Lippert-Mataga plots, the change between the dipole moments of the ground and excited states can be determined. Even though the Lippert-Mataga equation assumes no specific solvent-solute interactions (e.g. hydrogen bonding) and ignores solute polarizability, high degrees of linearity are apparent; and therefore, the estimations of the excited state dipoles are regarded as reliable. […] Perhaps owing to the minimal solvent interactions and rapid vibrational relaxation, the estimated changes in dipole moments (Δμ) are remarkably large (Table IV). […] Therefore, it is expected that these asymmetric TTzs dyes would be well suited to give high sensitivity in sensing applications whereby small changes in the polarity of the environment can lead to large differences in the wavelengths of fluorescence.

[3] = UV-Vis absorbance, fluorescence emission and quantum yield in organic solvents; assay type: physicochemical; conditions: for peak absorbance λmax, abs: in DCM
Protocol: The absorption, emission, and fluorescence lifetime characteristics of all four TTz dyes were recorded in a variety of organic solvents (FIGS. 7A-7B, Table of FIG. 8). Additionally, HOMO/LUMO levels of the TTz dyes were determined computationally in Spartan 16 using B3LYP/6-31g. Molar absorptivities of all the TTz dyes ranged from 13,000 to 86,000 cm^−1M^−1. […] However, the peak absorbance of Bu2N-TTz-Py in DCM was slightly red-shifted as compared to that of Ph2N-TTz-Py (λmax, abs=429 nm vs λmax, abs=422 nm in DCM), which is attributed to the diphenylamine moiety having weaker donor characteristics. […] Due to the low estimated ground state dipole moments of the TTz dyes (μ=6-8 D), their wavelengths of absorbance remained relatively solvent independent (st. dev.=±11 nm).
4-pyridine carboxaldehyde, 4-(dibutylamino)benzaldehyde, 4-(diphenylamino)benzaldehyde, terephthalaldehyde, dithiooxamide, and all solvents used for spectroscopic measurements were purchased from Sigma-Aldrich and used without further purification. ^1H and ^13CNMR measurements were obtained with either a JEOL 300 MHz NMR or a JEOL 500 MHz NMR. High resolution mass spectra were obtained using a Thermo Fisher Scientific MSQ Plus Single Quadrupole Mass Spectrometer. Solution-state UV-Vis spectra were collected on a Cary 300 UV-Vis spectrophotometer. Time-resolved measurements were taken on a Jobin Yvon-Spex Fluorolog equipped with a 389 nm diode laser for time-resolved PL decay measurements. Igor Pro 6.3 software was used to fit PL(t) decay data to single/multiple exponential decays. Quantum yields were calculated using 9,10-diphenylanthracene as a reference (quantum yield [ΦF] in cyclohexane=0.97).^40-41 Density functional theory (DFT) calculations were performed with Spartan computational software using B3LYP^42-43 density functional and 6-31G*^44 basis set. Temperature studies were conducted using a 10 μM Bu2N-TTz-Py MeTHF solution placed inside of a Norrell 502 NMR tube and sequentially submerged in the following liquid N2 baths:octanol (−16° C.), acetonitrile (−41° C.), acetone (−94° C.), pentane (−131° C.), MeTHF (−136° C.), and liquid N2 itself (−196° C.). The phosphorescence spectrum of Bu2N-TTz-Py (see S2) was collected similarly at −196° C. by pumping with 389 nm light while inside a liquid nitrogen bath and then probing the emission within 2 sec of removing from the bath. Human embryonic kidney cells (HEK 293T) were a kind gift from Prof. Bryan Dickinson, and Mouse macrophage J774A.1 cells were a kind gift from Prof. Deborah Nelson at the University of Chicago. Cells were cultured in Dulbecco's Modified Eagle's Medium (Invitrogen Corporation, USA) containing 10% heat inactivated Fetal Bovine Serum (FBS) (Invitrogen Corporation, USA), 100 U/mL penicillin, and 100 μg/mL streptomycin. Cells were maintained at 37° C. under 5% CO2.

[4] = TCSPC fluorescence lifetime in solvents; assay type: physicochemical
From the text: TCSPC measurements of the TTz dyes show a general upward trend for fluorescent lifetimes as the polarity increases in aprotic solvents—from 1.50-1.89 ns in nonpolar solvents to ~3.00 ns in polar, aprotic solvents (Table of FIG. 8). The fluorescence lifetimes in protic solvents have the opposite trend; that is, a decrease in the fluorescence lifetime as the polarity increases (e.g. for Ph2N-TTz-COOH: τf, iPrOH=2.40 ns, τf, MeOH=1.80 ns). The trend reversal in the fluorescence lifetime can most likely be attributed to the presence of hydrogen bonding in protic solvents. […] At the same time, the non-radiative rates of each TTz generally increases as solvent polarity increases. […] Regardless, the fact that the fluorescence lifetimes are solvent dependent opens up the possibility of using these TTz dyes for measuring micelle formation and viscosity in living cells using fluorescence lifetime imaging (FLIM).
4-pyridine carboxaldehyde, 4-(dibutylamino)benzaldehyde, 4-(diphenylamino)benzaldehyde, terephthalaldehyde, dithiooxamide, and all solvents used for spectroscopic measurements were purchased from Sigma-Aldrich and used without further purification. ^1H and ^13CNMR measurements were obtained with either a JEOL 300 MHz NMR or a JEOL 500 MHz NMR. High resolution mass spectra were obtained using a Thermo Fisher Scientific MSQ Plus Single Quadrupole Mass Spectrometer. […]

Change in Dipole Δμ [2]	Excited State Dipole μ* [2]	peak absorbance λmax, abs [3]	fluorescence lifetime τf, MeOH ([4]; MeOH)	fluorescence lifetime τf, iPrOH ([4]; iPrOH)	largest Stokes shift ([3]; largest across solvents)	Compound	quantum yield [ΦF] of reference [1]
						c1ccc(-c2c3ccccc3c(-c3ccccc3)c3ccccc23)cc1 [9,10-diphenylanthracene]	0.97
18.0 D	24.9 D	434 nm				O=Cc1ccc(-c2nc3sc(-c4ccc(N(c5ccccc5)c5ccccc5)cc4)nc3s2)cc1 [Ph2N-TTz-CHO, 2-(N,N-diphenyl-4-aminophenyl)-5-(4-formylphenyl) thiazolo[5,4-d]thiazole]	
13.0 D	21.3 D		1.80 ns	2.40 ns		O=C(O)c1ccc(-c2nc3sc(-c4ccc(N(c5ccccc5)c5ccccc5)cc4)nc3s2)cc1 [Ph2N-TTz-COOH, 2-(N,N-diphenyl-4-aminophenyl)-5-(4-carboxyphenyl) thiazolo[5,4-d]thiazole]	
14.6 D	20.8 D	422 nm			0.750 eV	c1ccc(N(c2ccccc2)c2ccc(-c3nc4sc(-c5ccncc5)nc4s3)cc2)cc1 [Ph2N-TTz-Py, 2-(N,N-diphenyl-4-aminophenyl)-5-(4-pyridyl) thiazolo[5,4-d]thiazole]	
